{
  "source": "ChEMBL document CHEMBL4800722",
  "about": "“Data for DCP probe BI 605906” (2021)",
  "key": {"[1]": {"target": "Cannabinoid receptor 2 (Homo sapiens) (UniProt P34972)", "sequence (P34972 whole entry)": "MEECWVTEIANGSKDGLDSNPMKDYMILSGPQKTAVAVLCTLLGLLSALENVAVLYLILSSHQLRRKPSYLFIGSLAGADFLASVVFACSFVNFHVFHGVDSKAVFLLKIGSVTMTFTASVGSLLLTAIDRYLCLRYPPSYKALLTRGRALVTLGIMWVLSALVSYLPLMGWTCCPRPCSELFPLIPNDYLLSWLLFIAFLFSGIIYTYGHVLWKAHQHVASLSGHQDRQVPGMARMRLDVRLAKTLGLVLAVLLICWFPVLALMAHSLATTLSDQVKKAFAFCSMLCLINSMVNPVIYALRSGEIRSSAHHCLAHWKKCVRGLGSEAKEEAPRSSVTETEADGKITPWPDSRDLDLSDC", "settings": "Compound concentration 10.0 uM"}, "[2]": {"target": "Mitogen-activated protein kinase kinase kinase 7 (Homo sapiens) (UniProt O43318)", "settings": "Compound concentration 1.0 uM"}, "[3]": {"target": "Phosphatidylinositol 3-kinase catalytic subunit type 3 (Homo sapiens) (UniProt Q8NEB9)", "settings": "Compound concentration 1.0 uM"}, "[4]": {"target": "G protein-coupled receptor kinase 3 (Homo sapiens) (UniProt P35626)", "sequence (P35626 whole entry)": "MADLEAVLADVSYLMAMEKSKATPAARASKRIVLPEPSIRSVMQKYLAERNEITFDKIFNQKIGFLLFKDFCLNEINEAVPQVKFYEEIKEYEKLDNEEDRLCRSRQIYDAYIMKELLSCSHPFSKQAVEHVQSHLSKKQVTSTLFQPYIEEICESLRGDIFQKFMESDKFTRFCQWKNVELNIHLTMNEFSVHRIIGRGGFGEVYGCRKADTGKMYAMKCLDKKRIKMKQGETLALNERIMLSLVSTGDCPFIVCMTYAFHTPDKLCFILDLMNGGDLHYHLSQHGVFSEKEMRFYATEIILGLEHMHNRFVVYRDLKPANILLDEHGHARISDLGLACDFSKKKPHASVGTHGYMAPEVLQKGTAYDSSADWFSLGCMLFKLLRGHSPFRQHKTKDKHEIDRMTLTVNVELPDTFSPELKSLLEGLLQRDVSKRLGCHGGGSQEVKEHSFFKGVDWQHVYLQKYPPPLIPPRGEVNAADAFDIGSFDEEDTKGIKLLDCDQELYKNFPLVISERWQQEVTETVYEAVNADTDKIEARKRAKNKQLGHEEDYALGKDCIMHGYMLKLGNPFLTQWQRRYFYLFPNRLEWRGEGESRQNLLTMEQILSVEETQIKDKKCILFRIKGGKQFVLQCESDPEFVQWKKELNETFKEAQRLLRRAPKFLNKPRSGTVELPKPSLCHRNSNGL", "settings": "Compound concentration 1.0 uM"}, "[5]": {"target": "Platelet-derived growth factor receptor alpha (Homo sapiens) (UniProt P16234)", "settings": "Compound concentration 1.0 uM"}, "[6]": {"target": "TGF-beta receptor type-1 (Homo sapiens) (UniProt P36897)", "settings": "Compound concentration 1.0 uM"}, "[7]": {"target": "Vascular endothelial growth factor receptor 3 (Homo sapiens) (UniProt P35916)", "settings": "Compound concentration 1.0 uM"}, "[8]": {"target": "Sodium-dependent noradrenaline transporter (Homo sapiens) (UniProt P23975)", "sequence (P23975 whole entry)": "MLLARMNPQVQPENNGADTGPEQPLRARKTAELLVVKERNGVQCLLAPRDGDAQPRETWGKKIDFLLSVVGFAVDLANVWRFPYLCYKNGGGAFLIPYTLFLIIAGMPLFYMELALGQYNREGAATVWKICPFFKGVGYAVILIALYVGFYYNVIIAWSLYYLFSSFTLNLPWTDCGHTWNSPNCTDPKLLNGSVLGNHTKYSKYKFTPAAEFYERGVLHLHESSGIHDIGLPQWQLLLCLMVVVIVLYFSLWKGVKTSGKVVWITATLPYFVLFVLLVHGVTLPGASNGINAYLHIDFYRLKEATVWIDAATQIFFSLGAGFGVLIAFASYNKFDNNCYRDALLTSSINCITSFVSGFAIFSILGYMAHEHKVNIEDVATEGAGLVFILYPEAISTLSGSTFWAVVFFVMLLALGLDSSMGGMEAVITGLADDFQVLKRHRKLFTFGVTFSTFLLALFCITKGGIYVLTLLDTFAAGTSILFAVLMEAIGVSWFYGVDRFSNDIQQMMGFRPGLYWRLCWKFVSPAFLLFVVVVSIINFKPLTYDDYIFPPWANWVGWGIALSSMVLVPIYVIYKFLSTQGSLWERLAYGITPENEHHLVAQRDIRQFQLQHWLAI", "settings": "Compound concentration 10.0 uM"}, "[9]": {"target": "Mitogen-activated protein kinase kinase kinase 21 (Homo sapiens) (UniProt Q5TCX8)", "settings": "Compound concentration 1.0 uM"}, "[10]": {"target": "Dual specificity protein kinase CLK1 (Homo sapiens) (UniProt P49759)", "settings": "Compound concentration 1.0 uM"}, "[11]": {"target": "Phosphatidylinositol 4-phosphate 3-kinase C2 domain-containing subunit alpha (Homo sapiens) (UniProt O00443)", "settings": "Compound concentration 1.0 uM"}, "[12]": {"target": "Cyclin-dependent kinase 16 (Homo sapiens) (UniProt Q00536)", "settings": "Compound concentration 1.0 uM"}, "[13]": {"target": "Serine/threonine-protein kinase SIK1 (Homo sapiens) (UniProt P57059)", "settings": "Compound concentration 1.0 uM"}, "[14]": {"target": "Casein kinase II subunit alpha' (Homo sapiens) (UniProt P19784)", "sequence (P19784 whole entry, looked up)": "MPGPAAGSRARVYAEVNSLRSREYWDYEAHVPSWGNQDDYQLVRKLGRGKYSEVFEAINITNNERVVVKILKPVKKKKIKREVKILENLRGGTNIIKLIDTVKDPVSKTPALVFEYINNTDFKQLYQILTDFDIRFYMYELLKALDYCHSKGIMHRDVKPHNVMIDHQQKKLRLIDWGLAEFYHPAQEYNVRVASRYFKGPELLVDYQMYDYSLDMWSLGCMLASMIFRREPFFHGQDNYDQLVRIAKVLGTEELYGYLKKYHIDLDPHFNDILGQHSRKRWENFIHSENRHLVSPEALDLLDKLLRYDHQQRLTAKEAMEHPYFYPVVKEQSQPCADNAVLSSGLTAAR", "settings": "Compound concentration 1.0 uM"}, "[15]": {"target": "Dual specificity protein kinase CLK3 (Homo sapiens) (UniProt P49761)", "sequence (P49761 whole entry, looked up)": "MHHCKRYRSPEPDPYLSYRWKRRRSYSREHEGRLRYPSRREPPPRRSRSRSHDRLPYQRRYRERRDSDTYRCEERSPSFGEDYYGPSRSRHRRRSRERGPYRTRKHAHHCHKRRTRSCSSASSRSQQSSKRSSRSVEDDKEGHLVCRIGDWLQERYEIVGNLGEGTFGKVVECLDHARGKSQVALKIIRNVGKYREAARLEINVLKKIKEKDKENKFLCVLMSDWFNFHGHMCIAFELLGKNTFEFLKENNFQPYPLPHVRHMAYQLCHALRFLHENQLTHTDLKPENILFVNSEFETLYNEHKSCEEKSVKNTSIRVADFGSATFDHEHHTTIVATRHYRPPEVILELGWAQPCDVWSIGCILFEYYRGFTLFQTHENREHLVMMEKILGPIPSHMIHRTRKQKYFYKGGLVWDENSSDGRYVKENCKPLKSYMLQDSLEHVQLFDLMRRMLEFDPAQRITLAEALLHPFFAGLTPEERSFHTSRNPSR", "assay": "CLK3 Invitrogen Lab (UK) kinase screen (BI)", "settings": "Compound concentration 1.0 uM"}, "[16]": {"target": "Phosphatidylinositol 4-phosphate 3-kinase C2 domain-containing subunit beta (Homo sapiens) (UniProt O00750)", "settings": "Compound concentration 1.0 uM"}, "[17]": {"target": "Tyrosine-protein kinase FRK (Homo sapiens) (UniProt P42685)", "settings": "Compound concentration 1.0 uM"}, "[18]": {"target": "Phosphatidylinositol 3-kinase regulatory subunit beta/Phosphatidylinositol 4,5-bisphosphate 3-kinase catalytic subunit beta isoform (Homo sapiens) (UniProt P42338+O00459)", "assay": "PIK3CB/PIK3R2 Invitrogen Lab (UK) kinase screen (BI)", "assay_type": "protein-complex assay", "settings": "Compound concentration 1.0 uM"}, "[19]": {"target": "Calcium/calmodulin-dependent protein kinase type II subunit delta (Homo sapiens) (UniProt Q13557)", "settings": "Compound concentration 1.0 uM"}, "[20]": {"target": "Serotonin 1 (5-HT1) receptor (Rattus norvegicus) (UniProt P28564+P30940+P19327+P28565)", "assay": "5HT1/R Eurofins SafetyScreen44 (BI)", "assay_type": "protein assay"}, "[21]": {"target": "Tyrosine-protein kinase Fer (Homo sapiens) (UniProt P16591)", "settings": "Compound concentration 1.0 uM"}, "[22]": {"target": "Serine/threonine-protein kinase TBK1 (Homo sapiens) (UniProt Q9UHD2)", "settings": "Compound concentration 1.0 uM"}, "[23]": {"target": "Dual specificity mitogen-activated protein kinase kinase 6 (Homo sapiens) (UniProt P52564)", "assay": "MAP2K6 Invitrogen Lab (UK) kinase screen (BI)", "settings": "Compound concentration 1.0 uM"}, "[24]": {"target": "Calcium/calmodulin-dependent protein kinase type 1D (Homo sapiens) (UniProt Q8IU85)", "settings": "Compound concentration 1.0 uM"}, "[25]": {"target": "Serine/threonine-protein kinase Sgk3 (Homo sapiens) (UniProt Q96BR1)", "settings": "Compound concentration 1.0 uM"}, "[26]": {"target": "5-hydroxytryptamine receptor 3A (Homo sapiens) (UniProt P46098)", "settings": "Compound concentration 10.0 uM"}, "[27]": {"target": "Atypical kinase COQ8A, mitochondrial (Homo sapiens) (UniProt Q8NI60)", "assay": "ADCK3 Invitrogen Lab (UK) kinase screen (BI)", "settings": "Compound concentration 1.0 uM"}, "[28]": {"target": "CDK6/cyclin D1 (Homo sapiens) (UniProt P24385+Q00534)", "settings": "Compound concentration 1.0 uM"}, "[29]": {"target": "Ephrin type-B receptor 1 (Homo sapiens) (UniProt P54762)", "assay": "EPHB1 Invitrogen Lab (UK) kinase screen (BI)", "settings": "Compound concentration 1.0 uM"}, "[30]": {"target": "Myosin light chain kinase family member 4 (Homo sapiens) (UniProt Q86YV6)", "assay": "MYLK4 Invitrogen Lab (UK) kinase screen (BI)", "settings": "Compound concentration 1.0 uM"}, "[31]": {"target": "Serine/threonine-protein kinase mTOR (Homo sapiens) (UniProt P42345)"}, "[32]": {"target": "AMP-activated protein kinase alpha-1/beta-2/gamma-3 (Homo sapiens) (UniProt O43741+Q13131+Q9UGI9)", "settings": "Compound concentration 1.0 uM"}, "[33]": {"target": "PI3-kinase p110-alpha/p85-alpha (Homo sapiens) (UniProt P27986+P42336)", "assay": "PIK3CAPIK3R1 Invitrogen Lab (UK) kinase screen (BI)", "assay_type": "protein-complex assay", "settings": "Compound concentration 1.0 uM"}, "[34]": {"target": "Phosphorylase b kinase gamma catalytic chain, skeletal muscle/heart isoform (Homo sapiens) (UniProt Q16816)", "assay": "PHKG1 Invitrogen Lab (UK) kinase screen (BI)", "settings": "Compound concentration 1.0 uM"}, "[35]": {"target": "AMPK alpha1/beta2/gamma1 (Homo sapiens) (UniProt O43741+P54619+Q13131)", "settings": "Compound concentration 1.0 uM"}, "[36]": {"target": "G protein-coupled receptor kinase 6 (Homo sapiens) (UniProt P43250)", "sequence (P43250 whole entry, looked up)": "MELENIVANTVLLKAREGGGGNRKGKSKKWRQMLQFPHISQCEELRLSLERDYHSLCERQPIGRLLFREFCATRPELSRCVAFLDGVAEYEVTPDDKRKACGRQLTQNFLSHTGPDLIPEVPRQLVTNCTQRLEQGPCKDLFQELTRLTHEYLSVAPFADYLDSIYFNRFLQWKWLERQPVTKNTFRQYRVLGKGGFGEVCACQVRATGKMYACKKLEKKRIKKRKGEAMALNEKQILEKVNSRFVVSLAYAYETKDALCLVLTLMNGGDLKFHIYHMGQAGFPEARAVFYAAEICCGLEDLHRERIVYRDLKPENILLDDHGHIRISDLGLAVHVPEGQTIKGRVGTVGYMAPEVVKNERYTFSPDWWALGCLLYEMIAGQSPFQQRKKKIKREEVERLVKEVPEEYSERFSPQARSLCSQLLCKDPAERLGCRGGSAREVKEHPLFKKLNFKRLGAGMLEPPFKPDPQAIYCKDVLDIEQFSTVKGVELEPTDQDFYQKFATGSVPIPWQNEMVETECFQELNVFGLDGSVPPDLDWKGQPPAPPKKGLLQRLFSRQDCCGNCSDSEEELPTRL", "settings": "Compound concentration 1.0 uM"}, "[37]": {"target": "Mitogen-activated protein kinase 7 (Homo sapiens) (UniProt Q13164)", "settings": "Compound concentration 1.0 uM"}, "[38]": {"target": "CDK4/Cyclin D3 (Homo sapiens) (UniProt P11802+P30281)", "settings": "Compound concentration 1.0 uM"}, "[39]": {"target": "Serine/threonine-protein kinase WNK1 (Homo sapiens) (UniProt Q9H4A3)", "settings": "Compound concentration 1.0 uM"}, "[40]": {"target": "Serine/threonine-protein kinase PAK 5 (Homo sapiens) (UniProt Q9P286)", "sequence (Q9P286 whole entry, looked up)": "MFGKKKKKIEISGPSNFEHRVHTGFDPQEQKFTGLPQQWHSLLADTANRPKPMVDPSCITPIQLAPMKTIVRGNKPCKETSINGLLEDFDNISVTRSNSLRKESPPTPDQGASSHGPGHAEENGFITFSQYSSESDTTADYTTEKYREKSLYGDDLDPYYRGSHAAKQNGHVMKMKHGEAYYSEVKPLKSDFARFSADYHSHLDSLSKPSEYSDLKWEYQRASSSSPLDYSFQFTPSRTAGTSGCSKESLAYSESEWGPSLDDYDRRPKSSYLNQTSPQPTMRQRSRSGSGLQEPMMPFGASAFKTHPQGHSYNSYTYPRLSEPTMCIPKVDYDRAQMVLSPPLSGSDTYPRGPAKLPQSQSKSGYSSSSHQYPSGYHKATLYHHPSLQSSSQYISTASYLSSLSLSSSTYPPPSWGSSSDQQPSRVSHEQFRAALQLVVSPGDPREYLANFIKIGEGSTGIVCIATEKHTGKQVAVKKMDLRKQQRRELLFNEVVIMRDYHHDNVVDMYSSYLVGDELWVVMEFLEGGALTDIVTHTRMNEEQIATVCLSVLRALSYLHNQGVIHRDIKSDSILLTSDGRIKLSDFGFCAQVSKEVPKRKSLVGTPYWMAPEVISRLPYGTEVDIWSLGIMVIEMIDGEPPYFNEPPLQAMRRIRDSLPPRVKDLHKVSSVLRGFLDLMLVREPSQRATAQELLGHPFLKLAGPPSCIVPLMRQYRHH", "settings": "Compound concentration 1.0 uM"}, "[41]": {"target": "Vasopressin V1a receptor (Homo sapiens) (UniProt P37288)", "sequence (P37288 whole entry, looked up)": "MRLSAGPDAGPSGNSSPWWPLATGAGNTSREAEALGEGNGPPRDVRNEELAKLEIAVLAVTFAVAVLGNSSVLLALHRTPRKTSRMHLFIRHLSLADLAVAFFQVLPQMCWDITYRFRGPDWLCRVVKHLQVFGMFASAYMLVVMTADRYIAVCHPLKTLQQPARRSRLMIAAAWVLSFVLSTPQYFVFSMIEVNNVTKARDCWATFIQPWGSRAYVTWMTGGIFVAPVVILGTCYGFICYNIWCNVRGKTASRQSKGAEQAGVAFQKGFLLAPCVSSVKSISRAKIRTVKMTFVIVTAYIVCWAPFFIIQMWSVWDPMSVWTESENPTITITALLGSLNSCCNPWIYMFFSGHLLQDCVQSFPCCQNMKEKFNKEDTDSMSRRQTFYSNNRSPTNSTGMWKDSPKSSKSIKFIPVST"}, "[42]": {"target": "Inhibitor of nuclear factor kappa-B kinase subunit beta (Homo sapiens) (UniProt O14920)", "sequence (O14920 whole entry)": "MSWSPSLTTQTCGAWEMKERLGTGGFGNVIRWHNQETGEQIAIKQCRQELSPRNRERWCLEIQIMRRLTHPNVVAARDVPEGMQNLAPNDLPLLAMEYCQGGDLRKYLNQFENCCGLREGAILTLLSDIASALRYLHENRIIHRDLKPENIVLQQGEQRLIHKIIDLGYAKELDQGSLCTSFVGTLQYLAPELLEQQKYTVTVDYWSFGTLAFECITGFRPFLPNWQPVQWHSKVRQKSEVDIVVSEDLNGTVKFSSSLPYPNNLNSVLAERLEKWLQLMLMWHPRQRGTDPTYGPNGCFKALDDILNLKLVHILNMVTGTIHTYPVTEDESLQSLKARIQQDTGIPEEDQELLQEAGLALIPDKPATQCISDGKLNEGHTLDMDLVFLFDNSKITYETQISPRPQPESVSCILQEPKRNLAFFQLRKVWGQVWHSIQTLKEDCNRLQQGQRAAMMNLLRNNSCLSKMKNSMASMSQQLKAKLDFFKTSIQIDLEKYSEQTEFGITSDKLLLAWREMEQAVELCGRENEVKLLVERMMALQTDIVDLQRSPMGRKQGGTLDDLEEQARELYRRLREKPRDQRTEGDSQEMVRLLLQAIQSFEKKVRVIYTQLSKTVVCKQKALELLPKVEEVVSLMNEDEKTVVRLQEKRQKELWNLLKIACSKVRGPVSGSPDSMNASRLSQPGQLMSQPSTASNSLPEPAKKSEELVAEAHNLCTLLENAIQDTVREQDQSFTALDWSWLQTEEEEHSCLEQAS"}, "[43]": {"settings": "Compound concentration 100.0 uM"}},
  "data": [
    {"smiles": "CCC(F)(F)c1cc(N2CCC(S(C)(=O)=O)CC2)nc2sc(C(N)=O)c(N)c12", "note": "[BI-605906]", "values": [
      {"measurement": "residual activity", "setting": "[1]", "value": 91, "unit": "%"},
      {"measurement": "residual activity", "setting": "[2]", "value": 101, "unit": "%"},
      {"measurement": "residual activity", "setting": "[3]", "value": 91, "unit": "%"},
      {"measurement": "residual activity", "setting": "[4]", "value": 96, "unit": "%"},
      {"measurement": "residual activity", "setting": "[5]", "value": 93, "unit": "%"},
      {"measurement": "residual activity", "setting": "[6]", "value": 94, "unit": "%"},
      {"measurement": "residual activity", "setting": "[7]", "value": 97, "unit": "%"},
      {"measurement": "inhibition", "setting": "[8]", "value": 8.84, "unit": "%"},
      {"measurement": "residual activity", "setting": "[9]", "value": 97, "unit": "%"},
      {"measurement": "residual activity", "setting": "[10]", "value": 92, "unit": "%"},
      {"measurement": "residual activity", "setting": "[11]", "value": 97, "unit": "%"},
      {"measurement": "residual activity", "setting": "[12]", "value": 87, "unit": "%"},
      {"measurement": "residual activity", "setting": "[13]", "value": 92, "unit": "%"},
      {"measurement": "residual activity", "setting": "[14]", "value": 87, "unit": "%"},
      {"measurement": "residual activity", "setting": "[15]", "value": 102, "unit": "%"},
      {"measurement": "residual activity", "setting": "[16]", "value": 101, "unit": "%"},
      {"measurement": "residual activity", "setting": "[17]", "value": 92, "unit": "%"},
      {"measurement": "residual activity", "setting": "[18]", "value": 112, "unit": "%"},
      {"measurement": "residual activity", "setting": "[19]", "value": 96, "unit": "%"},
      {"measurement": "residual activity", "setting": "[20]; Compound concentration 10.0 uM", "value": 119, "unit": "%"},
      {"measurement": "residual activity", "setting": "[20]; [43]", "value": 107, "unit": "%"},
      {"measurement": "residual activity", "setting": "[21]", "value": 95, "unit": "%"},
      {"measurement": "residual activity", "setting": "[22]", "value": 96, "unit": "%"},
      {"measurement": "residual activity", "setting": "[23]", "value": 75, "unit": "%"},
      {"measurement": "residual activity", "setting": "[24]", "value": 98, "unit": "%"},
      {"measurement": "residual activity", "setting": "[25]", "value": 96, "unit": "%"},
      {"measurement": "inhibition", "setting": "[26]", "value": -5.46, "unit": "%"},
      {"measurement": "residual activity", "setting": "[27]", "value": 67, "unit": "%"},
      {"measurement": "residual activity", "setting": "[28]", "value": 100, "unit": "%"},
      {"measurement": "residual activity", "setting": "[29]", "value": 85, "unit": "%"},
      {"measurement": "residual activity", "setting": "[30]", "value": 83, "unit": "%"},
      {"measurement": "residual activity", "setting": "[31]; Compound concentration 1.0 uM", "value": 99, "unit": "%"},
      {"measurement": "residual activity", "setting": "[31]; Compound concentration 10.0 uM", "value": 98, "unit": "%"},
      {"measurement": "residual activity", "setting": "[32]", "value": 91, "unit": "%"},
      {"measurement": "residual activity", "setting": "[33]", "value": 103, "unit": "%"},
      {"measurement": "residual activity", "setting": "[34]", "value": 103, "unit": "%"},
      {"measurement": "residual activity", "setting": "[35]", "value": 91, "unit": "%"},
      {"measurement": "residual activity", "setting": "[36]", "value": 93, "unit": "%"},
      {"measurement": "residual activity", "setting": "[37]", "value": 98, "unit": "%"},
      {"measurement": "residual activity", "setting": "[38]", "value": 97, "unit": "%"},
      {"measurement": "residual activity", "setting": "[39]", "value": 99, "unit": "%"},
      {"measurement": "residual activity", "setting": "[40]", "value": 93, "unit": "%"},
      {"measurement": "residual activity", "setting": "[41]; Compound concentration 10.0 uM", "value": 99, "unit": "%"},
      {"measurement": "residual activity", "setting": "[41]; [43]", "value": 89, "unit": "%"},
      {"measurement": "residual activity", "setting": "[42]; Compound concentration 1.0 uM", "value": 13.5, "unit": "%"},
      {"measurement": "residual activity", "setting": "[42]; Compound concentration 10.0 uM", "value": -1.5, "unit": "%"}
    ]}
  ]
}
